# Test results taken from ChEMBL document CHEMBL1154184, “Rational design and synthesis of potent dibenzazepine motifs as beta-secretase inhibitors” (J Med Chem, 2009).
# Biological target: Beta-secretase 1 (Homo sapiens, UniProt P56817)
# Test: Inhibition of human recombinant BACE1 by FRET assay
# Beta-secretase 1, sequence (P56817 whole entry): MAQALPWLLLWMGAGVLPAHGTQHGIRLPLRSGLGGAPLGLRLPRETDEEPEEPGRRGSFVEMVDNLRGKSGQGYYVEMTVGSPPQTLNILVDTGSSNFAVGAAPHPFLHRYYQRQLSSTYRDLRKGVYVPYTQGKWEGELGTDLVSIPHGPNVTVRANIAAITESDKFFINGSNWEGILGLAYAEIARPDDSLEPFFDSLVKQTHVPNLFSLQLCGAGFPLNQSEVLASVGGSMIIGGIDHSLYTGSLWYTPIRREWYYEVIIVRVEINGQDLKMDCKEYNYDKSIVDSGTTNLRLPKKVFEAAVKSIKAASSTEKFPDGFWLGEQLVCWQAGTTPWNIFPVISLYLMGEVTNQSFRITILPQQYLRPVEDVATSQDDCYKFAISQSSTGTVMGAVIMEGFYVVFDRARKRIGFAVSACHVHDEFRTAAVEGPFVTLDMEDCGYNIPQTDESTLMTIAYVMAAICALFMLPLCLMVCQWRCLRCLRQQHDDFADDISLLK
row,Structure (SMILES),Ki [nM]
1,O=C(Nc1nc2ccncc2[nH]1)c1ccc2c(c1)Nc1ccccc1NC2=O,309
2,O=C(Nc1nc2ccc(F)cc2[nH]1)c1ccc2c(c1)Nc1ccccc1NC2=O,244
3,O=C(Nc1nc(-c2ccncc2)c[nH]1)c1ccc2c(c1)Nc1ccccc1NC2=O,348
4,O=C(Nc1ccc(F)cc1)c1ccc2c(c1)Nc1ccccc1NC2=O,211
5,O=C(Nc1ccncc1)c1ccc2c(c1)Nc1ccccc1NC2=O,295
6,O=C(Nc1nc(-c2ccc(F)cc2)c[nH]1)c1ccc2c(c1)Nc1ccccc1NC2=O,293
7,C[C@@H](NC(=O)c1cc(NS(C)(=O)=O)cc(C(=O)N[C@@H](Cc2ccccc2)[C@@H](O)CNC2CC2)c1)c1ccc(F)cc1,10
